Entries after “also recorded” stand apart in the source; their conditions may differ.
Key:
cortical neurons = assay: Dendritogenesis assay, Sholl analysis; assay type: cell-based, rat; details: 10 μM; for Emax at 10 µM: Rattus norvegicus, Cortical neurone, Nmax with vehicle (DMSO) = 0% and ketamine = 100%, read-out: % efficacy in sholls; for dendritic arbor complexity / neuronal growth (Nmax of Sholl plots): cortical neurons
Excerpt: Dendritogenesis Assays. Phenotypic screening has historically proven more successful than target-based approaches for identifying drugs with novel mechanisms of action. Having established a simple and robust method for accessing isoDMT analogs, tested next was their ability to increase dendritic arbor complexity in cultures of cortical neurons using a phenotypic assay. Following treatment, neurons were fixed and visualized using an antibody against MAP2—a cytoskeletal protein localized to the somatodendritic compartment of neurons. Sholl analysis was then performed, and the maximum number of crossings (Nmax) was used as a quantitative metric of dendritic arbor complexity. For statistical comparisons between specific compounds, the raw Nmax values were compared. Percent efficacies were determined by setting the Nmax values for the vehicle (DMSO) and positive (ketamine) controls equal to 0% and 100%, respectively.
Animals. For the dendritogenesis experiments, timed pregnant Sprague Dawley rats were obtained from Charles River Laboratories (Wilmington, Mass.). For the head-twitch response assay, male and female C57BL/6J mice were obtained from Jackson Laboratory (Sacramento, Calif.). Mice were housed in a temperature and humidity-controlled room maintained on a 12-h light/dark cycle in groups of 4-5 (same sex). Animals weighed between 17 and 30 g at the time of the experiments. All experimental procedures involving rodents were approved by the UC Davis Institutional Animal Care and Use Committee (IACUC) and adhered to principles described in the National Institutes of Health Guide for the Care and Use of Laboratory Animals. The University of California, Davis and the University of California, San Francisco are accredited by the Association for Assessment and Accreditation of Laboratory Animal Care International (AAALAC).
Dendritogenesis—Sholl Analysis. Dendritogenesis experiments were performed following a previously published method with slight modifications. Neurons were plated in 96-well format (200 μL of media per well) at a density of approximately 15,000 cells/well in Neurobasal (Life Technologies) containing 1% penicillin-streptomycin, 10% heat-inactivated fetal bovine serum, and 0.5 mM glutamine. After 24 h, the medium was replaced with Neurobasal containing 1× B27 supplement (Life Technologies), 1% penicillin-streptomycin, 0.5 mM glutamine, and 12.5 μM glutamate. After 3 days in vitro (DIV3), the cells were treated with compounds. All compounds tested in the dendritogenesis assays were treated at 10 μM unless noted otherwise. Stock solutions of the compounds in DMSO were first diluted 100-fold in Neurobasal before an additional 10-fold dilution into each well (total dilution=1:1000; 0.1% DMSO concentration). Treatments were randomized. After 1 h, the media was removed and replaced with new Neurobasal media containing 1× B27 supplement, 1% penicillin-streptomycin, 0.5 mM glutamine, and 12.5 μM glutamate. The cells were allowed to grow for an additional 71 h. At that time, neurons were fixed by removing 80% of the media and replacing it with a volume of 4% aqueous paraformaldehyde (Alfa Aesar) equal to 50% of the working volume of the well. Then, the cells were incubated at room temperature for 20 min before the fixative was aspirated and each well washed twice with DPBS. Cells were permeabilized using 0.2% Triton X-100 (ThermoFisher) in DPBS for 20 minutes at room temperature without shaking. Plates were blocked with antibody diluting buffer (ADB) containing 2% bovine serum albumin (BSA) in DPBS for 1 h at room temperature. Then, plates were incubated overnight at 4° C. with gentle shaking in ADB containing a chicken anti-MAP2 antibody (1:10,000; EnCor, CPCA-MAP2). The next day, plates were washed three times with DPBS and once with 2% ADB in DPBS. […]

5HT2A sensor [1] = assay: 5HT2A sensor assay, antagonist mode (sLight1.3s HEK293T stable line); assay type: cell-based; details: 10 μM of compound (FIG. 13)
Protocol: In some embodiments, the 5HT2A sensor assay is in an antagonist mode.
(§1) 5HT2A Sensor Assays. HEK293T (ATCC) 5HT2A sensor stable line (sLight1.3s) was generated via lentiviral transduction of HIV-EF1α-sLight1.3 and propagated from a single colony. Lentivirus was produced using 2nd generation lentiviral plasmids pHIV-EF1α-sLight1.3, pHCMV-G, and pCMV-deltaR8.2.
(§2) For the screening of the 41 compounds, sLight1.3s cells were plated in 96-well plates at a density of 40000 24-hours prior to imaging. On the day of imaging, compounds solubilized in DMSO were diluted from the 100 mM stock solution to working concentrations of 1 mM, 100 μM and 1 μM with a DMSO concentration of 1%. Immediately prior to imaging, cells growing in DMEM (Gibco) were washed 2× with HBSS (Gibco) and in agonist mode 180 μL of HBSS or in antagonist mode 160 μL of HBSS was added to each well after the final wash. For agonist mode, images were taken before and after the addition of the 20 μL compound working solution into the wells containing 180 μL HBSS. This produced final compound concentrations of 100 μM, 10 μM and 100 nM with a DMSO concentration of 0.1%. For antagonist mode, images were taken before and after addition of 20 μL of 900 nM 5-HT and again after 20 μL of the compound working solutions to produce final concentrations of 100 nM for 5HT and 100 μM, 10 μM and 100 nM for the compounds with a DMSO concentration of 0.1%. Each compound was tested in triplicates (3 wells) for each concentration (100 μM, 10 μM and 100 nM). Additionally, within each plate, 100 nM 5HT and 0.1% DMSO controls were also imaged.
(§3) Imaging was performed using the Leica DMi8 inverted microscope with a 40× objective using the FITC preset with an excitation of 460 nm and emission of 512-542 nm. For each well, the cellular membrane where the 5HT2A sensor is targeted was autofocused using the adaptive focus controls and 5 images from different regions within the well were taken with each image processed from a 2×2 binning.
(§4) For data processing, the membranes from each image was segmented and analyzed using a custom algorithm written in MATLAB producing a single raw fluorescence intensity value. For each well the 5 raw fluorescence intensity values generated from the 5 images were averaged and the change in fluorescence intensity (dFF) was calculated as: dFF=(Fsat−Fapo)/Fapo
(§5) For both agonist and antagonist modes, the fluorescence intensity values before compound addition in HBSS only were used as the Fapo values while the fluorescence intensity values after compound addition were used as the Fsat values.
(§6) For agonist mode, data are as percent activation relative to 5HT, where 0 is the average of the DMSO wells and 100 is the average of the 100 uM 5HT wells. For antagonist mode, the inactivation score was calculated as: Inactivation score=(dFFF(Compound+5HT)−dFF(5HT))/dFF(5HT)

5HT2A sensor [2] = assay: 5HT2A sensor assay, agonist mode (sLight1.3s HEK293T stable line); assay type: cell-based; details: for activation of 5HT2A sensor assay in agonist mode at 10 μM: 10 μM of compound (FIG. 11)
Protocol: In some embodiments, hallucinogenic potential of a compound of the present invention is determined in vitro. In some embodiments, hallucinogenic potential of a compound of the present invention is determined using a 5HT2A sensor assay. In some embodiments, the 5HT2A sensor assay is in an agonist mode or an antagonist mode. In some embodiments, the 5HT2A sensor assay is in an agonist mode.
as §1, §2, §3, §4, §5, §6

Row | Compound | Emax at 10 µM (cortical neurons) [%] | activation of 5HT2A sensor assay in agonist mode at 10 μM (5HT2A sensor [2]) | also measured
1 | CN(C)CCn1cccc1 [Example 23, N,N-dimethyl-2-(1H-pyrrol-1-yl)ethan-1-amine] | 64 | – | dendritic arbor complexity / neuronal growth (Nmax of Sholl plots) (cortical neurons): minimal effect on the ability of these molecules to promote neuronal growth
2 | CC(C)CCn1ccc2ccccc21 [Example 25, 1-isopentyl-1H-indole] | 17 | – | dendritic arbor complexity / neuronal growth (Nmax of Sholl plots) (cortical neurons): did not promote dendritogenesis
3 | CN(C)CCn1ccc2cc(F)c(F)cc21 [Example 17, 2-(5,6-difluoro-1H-indol-1-yl)-N,N-dimethylethan-1-amine] | 84 | – | –
4 | CCN(CC)C(=O)[C@@H]1C=C2c3cccc4[nH]c(Br)c(c34)C[C@H]2N(C)C1 [BOL148, reference compound] | – | do not activate the 5HT2A sensor assay in agonist mode | competition with 5HT binding to 5HT2A, antagonist mode sensor assay at 10 μM (5HT2A sensor [1]): compete with 5HT binding to 5HT2A
5 | CN(C)CCn1ccc2c(F)cc(F)cc21 [Example 18, 2-(4,6-difluoro-1H-indol-1-yl)-N,N-dimethylethan-1-amine] | 62 | – | –
6 | CN(C)CCn1ccc2ccc(OCc3ccccc3)cc21 [Example 10, 2-(6-(benzyloxy)-1H-indol-1-yl)-N,N-dimethylethan-1-amine] | 65 | – | –
7 | CN(C)CCc1cn(C)c2ccccc12 [Example 27, N,N-dimethyl-2-(1-methyl-1H-indol-3-yl)ethan-1-amine, reference compound] | 73 | – | dendritic arbor complexity / neuronal growth (Nmax of Sholl plots) (cortical neurons): increase dendritic arbor complexity to a comparable extent as DMT (1); also recorded: increased dendritic arbor complexity to a comparable extent as 1
8 | CN(C)CCc1c[nH]c2ccccc12 [Example 1, N,N-dimethyltryptamine, reference compound] | 79 | activate the 5HT2A sensor assay in agonist mode | –
9 | O=C(c1ccc(F)cc1)C1CCN(CCn2c(=O)[nH]c3ccccc3c2=O)CC1 [Ketanserin, reference compound] | – | do not activate the 5HT2A sensor assay in agonist mode | competition with 5HT binding to 5HT2A, antagonist mode sensor assay at 10 μM (5HT2A sensor [1]): compete with 5HT binding to 5HT2A
10 | CN(C)CCn1ccc2cccc(F)c21 [Example 15, 2-(7-fluoro-1H-indol-1-yl)-N,N-dimethylethan-1-amine] | 85 | – | –
11 | CNC(C)Cc1ccc2c(c1)OCO2 [L-MDMA, reference compound] | – | do not activate the 5HT2A sensor assay in agonist mode | –
12 | CN(C)CCn1cc(C(=O)C(=O)N(C)C)c2ccccc21 [Example 21, 2-(1-(2-(dimethylamino)ethyl)-1H-indol-3-yl)-N,N-dimethyl-2-oxoacetamide] | 72 | – | dendritic arbor complexity / neuronal growth (Nmax of Sholl plots) (cortical neurons): well tolerated
13 | CCN(CC)C(=O)[C@@H]1C=C2c3cccc4[nH]cc(c34)C[C@H]2N(C)C1 [LSD, lysergic acid diethylamide, reference compound] | – | activate the 5HT2A sensor assay in agonist mode | activation of 5HT2A sensor assay in agonist mode (dose response) (5HT2A sensor [2]; dose response (FIG. 10)): activate
14 | CN(C)CCn1ccc2c(F)cccc21 [Example 12, 2-(4-fluoro-1H-indol-1-yl)-N,N-dimethylethan-1-amine] | 37 | – | –
15 | CN(C)CCn1ccc2c(OCc3ccccc3)cccc21 [Example 8, 2-(4-(benzyloxy)-1H-indol-1-yl)-N,N-dimethylethan-1-amine] | 38 | – | –
16 | CCN(CC)CCc1c[nH]c2cc(F)ccc12 [Example 6-F-DET, reference compound] | – | do not activate the 5HT2A sensor assay in agonist mode | competition with 5HT binding to 5HT2A, antagonist mode sensor assay at 10 μM (5HT2A sensor [1]): compete with 5HT binding to 5HT2A
17 | COc1cc(CC(C)N)c(OC)cc1I (stereo not shown) [DOI, reference compound] | – | activate the 5HT2A sensor assay in agonist mode | –
18 | CN(C)CCn1ccc2cc(F)ccc21 [Example 13, 2-(5-fluoro-1H-indol-1-yl)-N,N-dimethylethan-1-amine] | 75 | – | dendritic arbor complexity / neuronal growth (Nmax of Sholl plots) (cortical neurons): performed identically to 28 and 29
19 | CN(C)CCn1ccc2cc(OCc3ccccc3)ccc21 [Example 9, 2-(5-(benzyloxy)-1H-indol-1-yl)-N,N-dimethylethan-1-amine] | 78 | – | –
20 | CN(C)CCn1ccc2cccc(OCc3ccccc3)c21 [Example 11, 2-(7-(benzyloxy)-1H-indol-1-yl)-N,N-dimethylethan-1-amine] | 131 | – | –
21 | COc1ccc2c(ccn2C[C@@H](C)N(C)C)c1 [Example 32, (R)-1-(5-methoxy-1H-indol-1-yl)-N,N-dimethylpropan-2-amine] | 88 | – | –
22 | CN[C@H](C)Cc1ccc2c(c1)OCO2 [R-MDMA, reference compound] | – | do not activate the 5HT2A sensor assay in agonist mode | –
23 | C[C@H](Cn1ccc2cc(F)ccc21)N(C)C [Example 33, (R)-1-(5-fluoro-1H-indol-1-yl)-N,N-dimethylpropan-2-amine] | 65 | – | –
24 | CN(C)CCc1c[nH]c2cc(F)ccc12 [Example 29, 2-(6-fluoro-1H-indol-3-yl)-N,N-dimethylethan-1-amine, reference compound] | 81 | – | –
